Experiments:
[1] = tested on: NF-kappa B subunit p65; assay: Immunoblot of nuclear NF-kappa B subunit p65 in activated Jurkat T cells; type: cell-based, human; conditions: PMA/ionomycin 2 h
Protocol: Many inflammatory cytokine genes are transcriptionally activated by the inducible, ubiquitous transcription factors NF-AT, AP-1 and NF-kappa B (Tsai et al., 1996; Sica et al., 1997; Falvo et al., 2000; Macian et aL, 2001; Kaminuma et al., 2002; Li-Weber & Krammer, 2003). Therefore, we first examined the effect of the rocagtamide derivatives on nuclear expression levels of NF-AT, the AP-1 subunit c-Jun, and the NF-kappa B subunit p65 in activated T cells. Nuclear proteins were prepared from Jurkat T cells, stimulated by PMA/iouomycin for 2 h in the presence or absence of different doses of rocaglamides. […] CsA is a well known immunosuppressive reagent that targets NF-AT activity.

[2] = tested on: NF-kappa B; assay: NF-kappa B consensus luciferase reporter in Jurkat T cells; type: cell-based, human; conditions: for inhibition of NF-kappa B-dependent transcription: doses higher than 150 nM, 480 min
From the text: Luciferase reporter construct containing the human IL-2 (-300/+47), the human IL-4 (-269/+11) promoter and the multiple IL-4 NF-AT (P1) luciferase constructs were generated previously (Ehret et al., 2001; Li-Weber et al., 1998). The multiple copies of the AP-1 binding site from SV40 enhancer ([…]), the NF-kappa B consensus sequence ([…]) and the human IL-2 NF-AT (-282/-250) element ([…]) were constructed by ligation of the DNA sequence into the multiple-cloning site of pTATA-Luc vector. The luciferase reporter construct containing the human IFN-γ (-854/+7) promoter was construct by ligation of the IFN-γ promoter sequence generated by PCR into the luciferase reporter vector. All constructs were confirmed by sequencing analysis. The pLuc-Bax promoter reporter plasmid was kindly provided by M. L. Schmitz (Department for Chemistry and Biochemistry, University of Bern, Switzerland).
Jurkat T cells were transfected by eleclroporation as previously described (Li-Weber et al., 1998). After overnight recovering, the cells were divided and treated with different doses of rocaglamides and than further cultured in the absence or presence of PMA (10 ng/ml) and ionomycin (0.5 µM) for 8 h. Luciferase activity was determined in 10 µl of cell extract using the luciferase assay substrate (Promega Corp., Heidelberg, Germany) with a Duolumat LB9507 luminometer (Berthold, Bad Wildbad, Germany).
Characteristically, NF-AT family proteins act synergistically with AP-1 (Fos/Jun) proteins to activate genes containing composite NF-AT and AP-1 binding sites (Macian et al., 2001). Many cytokine genes, including IL-2, IL-4, and IFN-γ contain NF-AT/AP-1 composite sites in their promoter/enhancer region (Rao et al., 1997). To investigate whether inhibition of NF-AT and c-Jun expression by rocaglamides would lead to suppression of their transcriptional activities, we performed transfection studies with luciferase reporter constructs containing multiple copies of the NF-AT-binding elements derived from the IL-4 and IL-2 promoter and the consensus binding sequences for AP-1 and NF-kappa B, respectively. […]

[3] = tested on: JNK; assay: Immunoblot of phosphorylated JNK in Jurkat T cells; type: cell-based, human; conditions: with PMA/ionomycin
Protocol: T cells were lysed in ice-cold RIPA buffer (50 mM Tris-HCl, pH 8.0, 120 mM NaCI, 1% NP-40, 0.5% Desoxycholate, 1 mM PMSF, 25 mM NaF, 1% SDS, 1 mM DTT, 0.2 mM Na3V04 and 20 µl/ml protease inhibitors) for 30 min. […] Equal amounts of proteins were separated on 10% SDS-PAGE gels, transferred onto Hybond-ECL nitrocellulose membrane (Amersham Biosciences, Little Chalfon, UK). The membrane was blocked with 5% milk powder in PBS/0.1% Tween 20 for 1 h, washed with the same solution and incubated with antibodies at 37°C for 1 h or overnight at 4 °C. The blots were washed with PBS/Tween and developed with HRP-coupled antibodies followed by enhanced Chemiluminescence Reagent Plus (PerkinElmer Life Sciences, Boston, MA). […] For stripping, membranes were incubated for 30 min at 56 °C in a buffer containing 62.5 mM Tris-HCl, pH 6.7, 2% SDS and 100 mM β-mercaptoethanol.
To investigate the molecular mechanisms of rocaglamides-mediated suppression of NF-AT activity, we examined the effect of rocaglamides on activities of MAP kinases.

[4] = tested on: NF-kappa B; conditions: Baumann et al., 2002; cited from earlier work

| SMILES | nuclear levels of p65 [1] | NF-kappa B activity ([2]; concentrations up to 100 nM) | expression of phosphor-JNK (p-JNK) [3] | NF-kappa B activity induced by TNF-α or PMA [4] | inhibition of NF-kappa B-dependent transcription [2] |
| --- | --- | --- | --- | --- | --- |
| COc1ccc([C@@]23Oc4cc(OC)cc(OC)c4[C@]2(O)[C@H](O)[C@H](C(=O)N(C)C)[C@H]3c2ccccc2)cc1 [Roc-1] | slightly elevated | subtle increase | stronger inducers of p-JNK than Roc-2 | inhibit NF-kappa B activity | – |
| COc1ccc([C@@]23Oc4cc(OC)cc(OC)c4[C@]2(O)[C@H](OC(C)=O)[C@H](C(=O)N(C)C)[C@H]3c2ccccc2)cc1 [Roc-2] | – | – | Roc-1 and 3 are stronger inducers of p-JNK than Roc-2 | – | about 20% |
| COC(=O)[C@H]1[C@@H](OC=O)[C@@]2(O)c3c(OC)cc(OC)cc3O[C@@]2(c2ccc3c(c2)OCO3)[C@@H]1c1ccccc1 [Roc-3] | – | – | stronger inducers of p-JNK than Roc-2 | – | about 20% |

From patent publication EP1693059A1, “Use of rocaglamide derivatives as NF-AT-specific inhibitors for the treatment of certain inflammatory diseases” (Deutsches Krebsforschungszentrum, priority 2005, dated 2006)
